Values joined by “and” are separate entries in the source; they are usually repeats but may differ in a detail not shown here. Equal values may be shown once.
Molecular target: T1, Induced myeloid leukemia cell differentiation protein Mcl-1 [K194A,K197A,R201A] (Homo sapiens, UniProt Q07820, K194A/K197A/R201A)
T1 construct: gene MCL1
Test: MCL-1/Noxa BH3 Peptide (MCL-1 Assay)
Method: The dose-dependent inhibition by the compounds described in this invention of the interaction between MCL-1 and the BH3 domain of Noxa (both human) was determined using a steady state binding competition assay with time-resolved fluorescence energy transfer (TR-FRET) readout. […] The MBP-MCL-1 was purchased from Beryllium (Bedford, Mass., USA). […] The Noxa BH3-derived peptide can be obtained from e.g. Biosyntan (Berlin, Germany).

T1 sequence (Q07820 whole entry K194A/K197A/R201A, looked up): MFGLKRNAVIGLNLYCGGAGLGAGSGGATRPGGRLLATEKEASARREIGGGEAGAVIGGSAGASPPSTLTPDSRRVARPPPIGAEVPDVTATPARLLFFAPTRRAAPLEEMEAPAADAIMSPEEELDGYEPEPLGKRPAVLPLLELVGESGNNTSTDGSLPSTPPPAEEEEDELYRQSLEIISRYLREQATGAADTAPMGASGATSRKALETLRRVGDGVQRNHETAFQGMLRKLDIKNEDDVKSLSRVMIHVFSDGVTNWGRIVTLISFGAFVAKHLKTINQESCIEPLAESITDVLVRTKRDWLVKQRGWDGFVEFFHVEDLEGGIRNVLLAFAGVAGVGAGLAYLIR

| IC50 | Compound |
| --- | --- |
| 2.1 nM and 6.4 nM | CCc1c2c(nn1C)N(C)CCCCCn1c(C(=O)O)c(CCCOc3cccc4cc(F)ccc34)c3ccc(Cl)c-2c31 [US11447504, Example 77] |
| 2.2 nM | Cc1c2c(nn1C)N(C)CCCCCn1c(C(=O)O)c(CCCOc3cccc4ccccc34)c3ccc(Cl)c-2c31 [US11447504, Example 71] |

Source: BindingDB's records for patent US11447504 (Bayer Aktiengesellschaft; Bayer Pharma Aktiengesellschaft; …, 2022)
